Test results reported in patent US20250304549A1, “HYDROXYAMIDE DERIVATIVE AND USE THEREOF” (SICHUAN HUIYU PHARMACEUTICAL CO., LTD., priority 2022, published 2025).
Structures can show the parent of a compound that is named as a salt.

Key:
LSD1 = LSD1 (Homo sapiens (Human), UniProt O60341); test: In vitro enzyme inhibition assay - LSD1 (HTRF); type: biochemical
NCI-H69 cells = test: In vitro cell inhibition assay - NCI-H69 cell proliferation (CellTiter-Glo); type: cell-based; settings: Homo sapiens, NCI-H69, H69 small cell lung cancer cell proliferation
How it was run: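 CellTiter-Glo luminescence measured viability after a 7-day, 37° C. exposure of NCI-H69 cells (1×10^3/well) to an 8-point, 5-fold dilution series in RPMI-640/20% FBS. Inhibition was normalised to untreated and cell-free wells and IC50 derived by curve fitting.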

NCI-H1417 cells = test: In vitro cell inhibition assay - H1417 cell proliferation (CellTiter-Glo); type: cell-based; settings: Homo sapiens, NCI-H1417, H1417 small cell lung cancer cell proliferation
How it was run: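 Cells exposed to 8 compound concentrations (5-fold dilutions) in BEGM with 10% FBS for 7 days at 37° C., 5% CO2. Viable cells measured by CellTiter-Glo luminescence; inhibition versus no-inhibitor and no-cell controls, IC50 fitted.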

HDAC8 = HDAC8 (Homo sapiens (Human), UniProt Q9BY41); test: In vitro enzyme inhibition assay - HDAC (HDAC-Glo I/II), HDAC8; type: biochemical; settings: read-out: HDAC IC50 (nM) HDAC 8
Protocol: 2. In Vitro Enzyme Inhibition Assay—HDAC
The effect of the compound on the enzymatic activity of pan-HDAC and two isoforms (HDAC1 and HDAC8) was examined using the HDAC-Glo I/II Assay and Screening System assay to assess the level of inhibition of HDAC protease activity and selectivity in each isoform. The proteins and detection reagents were from the HDAC-Glo™ I/II Assay and Screening System (Promega). A 1 mM stock solution of the compound was prepared in DMSO and diluted in a 5-fold gradient to create a series of 8 concentrations, and a specific volume of the highest concentration was diluted 25 times with HDAC Buffer to obtain 4× working solution of the compound. […] The 384-well plate was then read on a multifunctional microplate reader, with the Luminescence channel selected to record Luminescence values (RLU). The inhibition rate was calculated using the following formula: […]
Note: ‘Negative’ refers to the group without the inhibitor; ‘Blank’ refers to the group without the enzyme.
The IC50 value was calculated by fitting the inhibition rate by GraphPad Prism software, employing log (inhibitor) vs. response-Variable Slope (four parameters) model.

pan-HDAC = test: In vitro enzyme inhibition assay - HDAC (HDAC-Glo I/II), pan-HDAC; type: biochemical
How it was run: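 Inhibition was measured with the HDAC-Glo I/II luminescent assay, testing compound as an 8-point, 5-fold dilution series from a 1 mM DMSO stock. Luminescence (RLU) was normalized to no-inhibitor and no-enzyme controls, and IC50 was derived by four-parameter variable-slope fitting.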

Chain of HDAC8 (Q9BY41 whole entry): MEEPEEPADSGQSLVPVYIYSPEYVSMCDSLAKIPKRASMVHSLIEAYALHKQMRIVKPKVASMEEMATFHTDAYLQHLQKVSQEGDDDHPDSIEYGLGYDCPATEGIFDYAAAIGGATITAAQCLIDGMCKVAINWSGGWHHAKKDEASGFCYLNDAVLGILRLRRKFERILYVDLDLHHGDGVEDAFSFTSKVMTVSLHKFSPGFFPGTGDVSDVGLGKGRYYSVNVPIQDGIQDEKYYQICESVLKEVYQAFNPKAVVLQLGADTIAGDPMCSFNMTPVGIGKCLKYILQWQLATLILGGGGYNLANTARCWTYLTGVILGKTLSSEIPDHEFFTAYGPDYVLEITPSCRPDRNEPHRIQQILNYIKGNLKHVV

| SMILES | IC50 (LSD1) [nM] | IC50 (NCI-H69 cells) [nM] | IC50 (NCI-H1417 cells) [nM] | IC50 (HDAC8) [nM] | IC50 (pan-HDAC) [nM] |
| --- | --- | --- | --- | --- | --- |
| COc1cc(OC)c(-c2cnc(N3CCC(NCc4ccc(/C=C/C(=O)NO)cc4)CC3)c(C#N)c2-c2ccc(C#N)c(F)c2)cc1O [Example 165, (E)-3-(4-(((1-(3-Cyano-4-(4-cyano-3-fluorophenyl)-5-(5-hydroxy-2,4-dimethoxyphenyl)pyridin-2-yl)piperidin-4-yl)amino)methyl)phenyl-N-hydroxyacrylamide hydrochloride] | 1.35 | 114 | 11.4 | 145 | 7.31 |
| COc1ccc(-c2cnc(N3CCC(NCC4CC=C(/C=C/C(=O)NO)CC4)CC3)c(C#N)c2-c2ccc(C#N)c(F)c2)cc1O (centres unmarked) [Example 155, (E)-3-(4-(((1-(3-Cyano-4-(4-cyano-3-fluorophenyl)-5-(3-hydroxy-4-methoxyphenyl)pyridin-2-yl)piperidin-4-yl)amino)methyl)cyclohex-1-en-1-yl)-N-hydroxyacrylamide formate] | 0.58 | 314 | 11.5 | 23.7 | 20 |
| N#Cc1ccc(-c2c(-c3ccc(OCCc4ccc(/C=C/C(=O)NO)cc4)c(O)c3)cnc(N3CCC(N)CC3)c2C#N)cc1F [Example 231, (E)-3-(4-(2-(4-(6-(4-Aminopiperidin-1-yl)-5-cyano-4-(4-cyano-3-fluorophenyl)pyridin-3-yl)-2-hydroxyphenoxy)ethyl)phenyl)-N-hydroxyacrylamide hydrochloride] | 0.07 | 1140 | 1.31 | 140 | 82.4 |
| COc1ccc(-c2cnc(N3CCC(NCc4ccc(/C=C/C(=O)NO)c5[nH]ncc45)CC3)c(C#N)c2-c2ccc(C#N)c(F)c2)cc1O [Example 180, (E)-3-(4-(((1-(3-Cyano-4-(4-cyano-3-fluorophenyl)-5-(3-hydroxy-4-methoxyphenyl)pyridin-2-yl)piperidin-4-yl)amino)methyl)-1H-indazol-7-yl)-N-hydroxyacrylamide formate] | 0.11 | 5040 | 3.63 | 1240 | 23.4 |
| COc1ccc(-c2cnc(N3CCC(NCCOc4ccc(C(=O)NO)cc4)CC3)c(C#N)c2-c2ccc(C#N)c(F)c2)cc1O [Example 164, 4-(2-[(1-(3-Cyano-4-(4-cyano-3-fluorophenyl)-5-(3-hydroxy-4-methoxyphenyl)pyridin-2-yl)piperidin-4-yl)amino]ethoxy)-N-hydroxybenzamide formate] | 0.44 | 432 | 2.66 | 332 | 38.1 |
| N#Cc1ccc(-c2c(-c3ccc(C(F)(F)F)c(O)c3)cnc(N3CCC(NCc4cnc(CCC(=O)NO)nc4)CC3)c2C#N)cc1F [Example 195, 3-(5-(1-(3-Cyano-4-(4-cyano-3-fluorophenyl)-5-(3-hydroxy-4-trifluoromethylphenyl)pyridin-2-yl)piperidin-4-ylamino)methyl) pyrimidin-2-yl)-N-hydroxypropanamide formate] | 4.12 | 1670 | 52.4 | 172 | 11.8 |
| Cc1c(O)cc(-c2cnc(N3CCC(NCc4ccc(/C=C/C(=O)NO)cc4)CC3)c(C#N)c2-c2ccc(C#N)c(F)c2)cc1F [Example 161, (E)-3-(4-(((1-(3-Cyano-4-(4-cyano-3-fluorophenyl)-5-(3-fluoro-5-hydroxy-4-methylphenyl)pyridin-2-yl)piperidin-4-yl)amino)methyl)phenyl)-N-hydroxyacrylamide formate] | 0.58 | 65 | 3.13 | 304 | 6.83 |
| N#Cc1ccc(-c2c(-c3ccc(C(F)(F)F)c(O)c3)cnc(N3CCC(NCc4ccc(CCC(=O)NO)cc4)CC3)c2C#N)cc1F [Example 190, 3-(4-((1-(3-Cyano-4-(4-cyano-3-fluorophenyl)-5-(3-hydroxy-4-(trifluoromethyl)phenyl)pyridin-2-yl)piperidin-4-yl)amino)methyl) phenyl)-N-hydroxypropanamide formate] | 2.85 | 93.4 | 7.33 | 336 | 5.96 |
| COc1c(O)cc(-c2cnc(N3CCC(NCc4ccc(/C=C/C(=O)NO)cc4)CC3)c(C#N)c2-c2ccc(C#N)c(F)c2)cc1F [Example 168, (E)-3-(4-(((1-(3-Cyano-4-(4-cyano-3-fluorophenyl)-5-(3-fluoro-5-hydroxy-4-methoxyphenyl)pyridin-2-yl)piperidin-4-yl)amino)methyl)phenyl)-N-hydroxyacrylamide formate] | 1.34 | 65.6 | 5.23 | 250 | 7.35 |
| COc1ccc(-c2cnc(N3CCC(NCc4ccc(/C=C/C(=O)NO)nn4)CC3)c(C#N)c2-c2ccc(C#N)c(F)c2)cc1O [Example 160, (E)-3-(6-(((1-(3-Cyano-4-(4-cyano-3-fluorophenyl)-5-(3-hydroxy-4-methoxyphenyl)pyridin-2-yl)piperidin-4-yl)amino)methyl)pyridazin-3-yl)-N-hydroxyacrylamide formate] | 1.12 | 80.6 | 5.59 | 184 | 1.48 |
| COc1ccc(-c2cnc(N3CCC(NCc4ccc5sc(C(=O)NO)cc5c4)CC3)c(C#N)c2-c2ccc(C#N)c(F)c2)cc1O [Example 173, 5-(((1-(3-Cyano-4-(4-cyano-3-fluorophenyl)-5-(3-hydroxy-4-methoxyphenyl)pyridin-2-yl)piperidin-4-yl)amino)methyl)-N-hydroxybenzo[b] thiophene-2-carboxamide formate] | 0.82 | 613 | 2.23 | 252 | 114 |
| COc1ccc(-c2c(C#N)cc(N3CCC(NCc4cnc(/C=C/C(=O)NO)nc4)CC3)nc2-c2ccc(C#N)c(F)c2)cc1O [Example 234, (E)-3-(5-(((1-(4-Cyano-6-(4-cyano-3-fluorophenyl)-5-(3-hydroxy-4-methoxyphenyl)pyridin-2-yl)piperidin-4-yl)amino)methyl)pyrimidin-2-yl)-N-hydroxyacrylamide formate] | 1.08 | 77.6 | 15 | 51.1 | 13.3 |
| CC(C)(O)COc1ccc(-c2cnc(N3CCC(NCc4ccc(CCC(=O)NO)nc4)CC3)c(C#N)c2-c2ccc(C#N)c(F)c2)cc1O [Example 204, 3-(5-((((1-(3-Cyano-4-(4-cyano-3-fluorophenyl)-5-(3-hydroxy-4-(2-hydroxy-2-methylpropoxy)phenyl)pyridin-2-yl)piperidin-4-yl)amino)methyl)pyridin-2-yl)-N-hydroxypropanamide formate] | 1.58 | 89.2 | 5.14 | 26.2 | 2.37 |
| COc1ccc(-c2cnc(N3CCC(NCc4ccc(/C=C/C(=O)NO)o4)CC3)c(C#N)c2-c2ccc(C#N)c(F)c2)cc1O [Example 178, (E)-3-(5-(((1-(3-Cyano-4-(4-cyano-3-fluorophenyl)-5-(3-hydroxy-4-methoxyphenyl)pyridin-2-yl)piperidin-4-yl)amino)methyl)furan-2-yl)-N-hydroxyacrylamide formate] | 0.65 | 906 | 4.21 | 1710 | 588 |
| COc1ccc(-c2cnc(N3CCC(NCc4ccc(/C=C/C(=O)NO)cc4C)CC3)c(C#N)c2-c2ccc(C#N)c(F)c2)cc1O [Example 211, (E)-3-(4-(((1-(3-Cyano-4-(4-cyano-3-fluorophenyl)-5-(3-hydroxy-4-methoxyphenyl)pyridin-2-yl)piperidin-4-yl)amino)methyl)-3-methylphenyl)-N-hydroxyacrylamide formate] | 0.31 | 189 | 10.7 | 83.5 | 2.04 |
| N#Cc1ccc(-c2c(-c3ccc(C(F)(F)F)c(O)c3)cnc(N3CCC(NCc4cnc(/C=C/C(=O)NO)nc4)CC3)c2C#N)cc1F [Example 186, (E)-3-(5-(((1-(3-Cyano-4-(4-cyano-3-fluorophenyl)-5-(3-hydroxy-4-(trifluoromethyl)phenyl)pyridin-2-yl)piperidin-4-yl)amino)methyl)pyrimidin-2-yl)-N-hydroxyacrylamide formate] | 10.2 | 85 | 23.5 | 50.9 | 11.9 |
